Values after ≈ are worked out from the molar mass of the structure shown. Like-named read-outs stand apart in the source and are kept apart here.
Tests used:
Type in all cases: cell-based
[1] = system: Acinetobacter baumannii ATCC 19606; test: MIC, CLSI broth microdilution; conditions: ATCC19606
How it was run: (§1)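 Working inoculum of 5×10^5 CFU/mL, prepared from freshly subcultured genotyped strains, was dispensed onto two-fold compound dilutions giving final concentrations of 16-0.0125 μg/mL. Testing adhered to CLSI broth microdilution methodology.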

[2] = system: Pseudomonas aeruginosa OprD negative; test: MIC, CLSI broth microdilution
How it was run: (§2)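 Isolates stored at −80 °C in skim milk are passaged twice, suspended in broth, and challenged in microdilution panels per CLSI. Final drug range is 16-0.0125 μg/mL; final cell density is 5×10^5 CFU/mL.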

[3] = system: Escherichia coli CMY-2; test: MIC, CLSI broth microdilution; conditions: CMY2
How it was run: as §1

[4] = system: Pseudomonas aeruginosa AmpC overexpressed; test: MIC, CLSI broth microdilution
How it was run: as §2

[5] = system: Escherichia coli ATCC 25922; test: MIC, CLSI broth microdilution; conditions: ATCC25922
How it was run: as §1

[6] = system: Klebsiella pneumoniae OXA-163, OXA-1_OXA-30, SHV-1, TEM-1; test: MIC, CLSI broth microdilution
How it was run: as §2

[7] = system: Enterobacter cloacae species complex NDM-1; test: MIC, CLSI broth microdilution
How it was run: as §1

[8] = system: Serratia marcescens SME-2; test: MIC, CLSI broth microdilution; conditions: SME2
How it was run: as §1

[9] = system: Pseudomonas aeruginosa ATCC 27853; test: MIC, CLSI broth microdilution; conditions: ATCC27853
How it was run: as §1

[10] = system: Escherichia coli SHV-12; test: MIC, CLSI broth microdilution; conditions: SHV12
How it was run: as §1

[11] = system: Klebsiella pneumoniae KPC-2; test: MIC, CLSI broth microdilution; conditions: KPC2
How it was run: as §1

[12] = system: Klebsiella pneumoniae OXA-48, SHV-1; test: MIC, CLSI broth microdilution
How it was run: as §2

[13] = system: Serratia marcescens AmpC overexpressed; test: MIC, CLSI broth microdilution
How it was run: as §2

[14] = system: Escherichia coli CTX-M-15; test: MIC, CLSI broth microdilution; conditions: CTXM15
How it was run: as §1

[15] = system: Klebsiella pneumoniae SHV-12; test: MIC, CLSI broth microdilution
How it was run: as §1

[16] = system: Klebsiella aerogenes VIM-1, SHV-12; test: MIC, CLSI broth microdilution
How it was run: as §1

[17] = system: Citrobacter freundii species complex Elevated AmpC; test: Synergistic activity: MIC in the presence of Avibactam; conditions: row r16, in the presence of Avibactam @ 4 μg/mL
Method: (§3) Isolates were sub-cultured onto appropriate media and stocked in skim milk at −80° C. Following two subcultures from frozen stock, in vitro antimicrobial susceptibility testing was performed using the Clinical and Laboratory Standards Institute (CLSI) broth microdilution method. Briefly, fresh cultures were suspended in culture media to give a final stock inoculum size of 5×10^7 colony forming units per milliliter of broth (CFU/mL). Test compounds were prepared at a stock solution concentration equal to 128 μg/mL, then diluted to give a final an initial working concentration of 32 μg/mL. 100 μL of the stock solutions were added to the first wells in a 96-well plate and were then diluted using a 2-fold dilution method to give a range of 32-0.025 μg/mL. 100 μL of the bacterial suspensions were then added to the 96-well plates to give a final working inoculum size of 5×10^5 CFU/mL. The final compound concentration range was 16-0.0125 μg/mL. […] MICs for comparator agents were determined using custom-designed, in-house prepared 96-well broth microdilution panels.
(§4) The same method used to test the activity of the claimed compounds was used to determine their synergistic activity when combined with a β-lactamase inhibitor except that either a fixed concentration or fixed ratio of a β-lactamase inhibitor was added to the 96-well plates prior to adding the bacteria cultures. Synergistic activity was defined as the reduction of MIC of a given compound when tested using the β-lactamase inhibitor versus testing the compound in the absence of a β-lactamase inhibitor.

[18] = system: Enterobacter cloacae species complex Elevated AmpC; test: as above
Method: as §3, §4

[19] = system: Escherichia coli CMY-DHA; test: as above
Method: as §3, §4

[20] = system: Klebsiella pneumoniae CMY-DHA; test: as above; conditions: row r32, in the presence of Avibactam @ 4 μg/mL
Method: as §3, §4

[21] = system: Proteus mirabilis CMY-DHA; test: as above; conditions: row r36, in the presence of Avibactam @ 4 μg/mL
Method: as §3, §4

[22] = system: Escherichia coli Elevated AmpC; test: as above
Method: as §3, §4

[23] = system: Escherichia coli CMY-DHA; test: MIC against CMY-DHA producing strains, compound alone
Method: (§5) Gram-negative and Gram-positive bacterial strains used during the in vitro minimum inhibitory concentration (MIC) determination were obtained either from the American Type Culture Collection (ATCC) or from clinical specimens. All strains were characterized genotypically and the respective antibiotic resistance markers for each strain were identified.
as §3

[24] = system: Klebsiella pneumoniae CMY-DHA; test: as above; conditions: row r32
Method: as §5, §3

[25] = system: Proteus mirabilis CMY-DHA; test: as above; conditions: row r36
Method: as §5, §3

[26] = in the presence of Avibactam @ 4 μg/mL
[27] = strain of row r7, in the presence of Avibactam @ 4 μg/mL
[28] = strain of row r20, in the presence of Avibactam @ 4 μg/mL
[29] = strain of row r26, in the presence of Avibactam @ 4 μg/mL
[30] = strain of row r27, in the presence of Avibactam @ 4 μg/mL
[31] = strain of row r28, in the presence of Avibactam @ 4 μg/mL
[32] = strain of row r29, in the presence of Avibactam @ 4 μg/mL
[33] = strain of row r30, in the presence of Avibactam @ 4 μg/mL
[34] = strain of row r31, in the presence of Avibactam @ 4 μg/mL
[35] = strain of row r34, in the presence of Avibactam @ 4 μg/mL
[36] = strain of row r35, in the presence of Avibactam @ 4 μg/mL
[37] = strain of row r10, in the presence of Avibactam @ 4 μg/mL
[38] = strain of row r11, in the presence of Avibactam @ 4 μg/mL
[39] = strain of row r12, in the presence of Avibactam @ 4 μg/mL
[40] = strain of row r13, in the presence of Avibactam @ 4 μg/mL
[41] = strain of row r14, in the presence of Avibactam @ 4 μg/mL
[42] = strain of row r15, in the presence of Avibactam @ 4 μg/mL

## Nc1nc(/C(=N/OC2(C(=O)O)CCOCC2)C(=O)N[C@H]2CON(C3(C(=O)O)C[C@H](N4C(=O)c5cc(O)c(O)cc5C4=O)C(=O)O3)C2=O)cs1 (stereo partly drawn) [Cmpd 8, 4-({(Z)-[1-(2-amino-1,3-thiazol-4-yl)-2-({(4S)-2-[(4S)-2-carboxy-4-(5,6-dihydroxy-1,3-dioxo-1,3-dihydro-2H-isoindol-2-yl)-5-oxooxolan-2-yl]-3-oxo-1,2-oxazolidin-4-yl}amino)-2-oxoethylidene]amino}oxy)oxane-4-carboxylic acid]
[1]
  MIC: 0.12 µg/mL (≈ 0.17 µM)
[2]
  MIC: 0.12 µg/mL (≈ 0.17 µM)
[3]
  MIC: 1 µg/mL (≈ 1.42 µM)
[4]
  MIC: 0.5 µg/mL (≈ 0.71 µM)
[5]
  MIC: 0.06 µg/mL (≈ 0.0852 µM)
[6]
  MIC: 0.06 µg/mL (≈ 0.0852 µM)
[7]
  MIC: 0.25 µg/mL (≈ 0.355 µM)
[8]
  MIC: 0.06 µg/mL (≈ 0.0852 µM)
[9]
  MIC: 0.12 µg/mL (≈ 0.17 µM)
[10]
  MIC: 1 µg/mL (≈ 1.42 µM)
[11]
  MIC: 0.12 µg/mL (≈ 0.17 µM)
[12]
  MIC: 0.0149 µg/mL (≈ 0.0211 µM)
[13]
  MIC: 0.06 µg/mL (≈ 0.0852 µM)
[14]
  MIC: 2 µg/mL (≈ 2.84 µM)
[15]; SHV12
  MIC: 0.0149 µg/mL (≈ 0.0211 µM)
[16]
  MIC: 2 µg/mL (≈ 2.84 µM)
[17]
  MIC: 0.03 µg/mL
[18]; [26]
  MIC: 0.06 µg/mL
[18]; [27]
  MIC: 0.12 µg/mL
[18]; [28]
  MIC: <=0.008 μg/mL
[19]; [29]
  MIC: 0.03 µg/mL
[19]; [30]
  MIC: <=0.008 μg/mL
[19]; [31]
  MIC: <=0.008 μg/mL
[19]; [32]
  MIC: 0.06 µg/mL
[19]; [33]
  MIC: <=0.008 μg/mL
[19]; [34]
  MIC: 0.06 µg/mL
[19]; [35]
  MIC: 0.015 µg/mL
[19]; [36]
  MIC: <=0.008 μg/mL
[20]
  MIC: 0.25 µg/mL
[21]
  MIC: 0.5 µg/mL
[22]; [37]
  MIC: <=0.008 μg/mL
[22]; [38]
  MIC: 0.03 µg/mL
[22]; [39]
  MIC: 0.03 µg/mL
[22]; [40]
  MIC: <=0.008 μg/mL
[22]; [41]
  MIC: <=0.008 μg/mL
[22]; [42]
  MIC: 0.06 µg/mL
[23]; strain of row r26
  MIC: 1 µg/mL (≈ 1.42 µM)
[23]; strain of row r27
  MIC: 0.06 µg/mL (≈ 0.0852 µM)
[23]; strain of row r28
  MIC: 0.25 µg/mL (≈ 0.355 µM)
[23]; strain of row r29
  MIC: 0.5 µg/mL (≈ 0.71 µM)
[23]; strain of row r30
  MIC: 0.25 µg/mL (≈ 0.355 µM)
[23]; strain of row r31
  MIC: 1 µg/mL (≈ 1.42 µM)
[23]; strain of row r34
  MIC: 0.12 µg/mL (≈ 0.17 µM)
[23]; strain of row r35
  MIC: 0.25 µg/mL (≈ 0.355 µM)
[24]
  MIC: 1 µg/mL (≈ 1.42 µM)
[25]
  MIC: 4 µg/mL (≈ 5.68 µM)

## Nc1nc(/C(=N/OC2(C(=O)O)CC2)C(=O)N[C@H]2CON(C3(C(=O)O)C[C@H](N4Cc5cc(O)c(O)cc5C4=O)C(=O)O3)C2=O)cs1 (stereo partly drawn) [Cmpd 28, (4S)-2-[(4S)-4-{[(2Z)-2-(2-amino-1,3-thiazol-4-yl)-2-{[(1-carboxycyclopropyl)oxy]imino}acetyl]amino}-3-oxo-1,2-oxazolidin-2-yl]-4-(5,6-dihydroxy-1-oxo-1,3-dihydro-2H-isoindol-2-yl)-5-oxooxolane-2-carboxylic acid]
[1]
  MIC: 0.12 µg/mL (≈ 0.186 µM)
[2]
  MIC: 0.5 µg/mL (≈ 0.773 µM)
[3]
  MIC: 8 µg/mL (≈ 12.4 µM)
[4]
  MIC: 2 µg/mL (≈ 3.09 µM)
[5]
  MIC: 0.25 µg/mL (≈ 0.387 µM)
[6]
  MIC: 0.25 µg/mL (≈ 0.387 µM)
[7]
  MIC: 2 µg/mL (≈ 3.09 µM)
[8]
  MIC: 0.12 µg/mL (≈ 0.186 µM)
[9]
  MIC: 1 µg/mL (≈ 1.55 µM)
[10]
  MIC: 0.5 µg/mL (≈ 0.773 µM)
[11]
  MIC: 0.0149 µg/mL (≈ 0.023 µM)
[12]
  MIC: 0.0149 µg/mL (≈ 0.023 µM)
[13]
  MIC: 0.25 µg/mL (≈ 0.387 µM)
[14]
  MIC: 1 µg/mL (≈ 1.55 µM)
[15]; SHV12, SHV-12, read-out: MIC
  MIC: 0.06 µg/mL (≈ 0.0928 µM)
[16]
  MIC: 0.12 µg/mL (≈ 0.186 µM)
[17]
  MIC: 0.12 µg/mL
[18]; [26]
  MIC: 0.25 µg/mL
[18]; [27]
  MIC: 0.5 µg/mL
[18]; [28]
  MIC: 0.015 µg/mL
[19]; [29]
  MIC: 0.12 µg/mL
[19]; [30]
  MIC: <=0.008 μg/mL
[19]; [31]
  MIC: 0.06 µg/mL
[19]; [32]
  MIC: 0.12 µg/mL
[19]; [33]
  MIC: <=0.008 μg/mL
[19]; [34]
  MIC: 0.12 µg/mL
[19]; [35]
  MIC: 0.015 µg/mL
[19]; [36]
  MIC: 0.03 µg/mL
[20]
  MIC: 0.12 µg/mL
[21]
  MIC: 0.03 µg/mL
[22]; [37]
  MIC: 0.015 µg/mL
[22]; [38]
  MIC: 0.06 µg/mL
[22]; [39]
  MIC: 0.03 µg/mL
[22]; [40]
  MIC: <=0.008 μg/mL
[22]; [41]
  MIC: 0.06 µg/mL
[22]; [42]
  MIC: 0.25 µg/mL
[23]; strain of row r26
  MIC: 4 µg/mL (≈ 6.19 µM)
[23]; strain of row r27
  MIC: 0.25 µg/mL (≈ 0.387 µM)
[23]; strain of row r28
  MIC: 0.5 µg/mL (≈ 0.773 µM)
[23]; strain of row r29
  MIC: 4 µg/mL (≈ 6.19 µM)
[23]; strain of row r30
  MIC: 1 µg/mL (≈ 1.55 µM)
[23]; strain of row r31
  MIC: 8 µg/mL (≈ 12.4 µM)
[23]; strain of row r34
  MIC: 1 µg/mL (≈ 1.55 µM)
[23]; strain of row r35
  MIC: 2 µg/mL (≈ 3.09 µM)
[24]
  MIC: 2 µg/mL (≈ 3.09 µM)
[25]
  MIC: 2 µg/mL (≈ 3.09 µM)

Reference: patent US11780832B2, “Lactivicin compounds, their preparation and use as antibacterial agents” (priority 2021, dated 2023)
